Our source for the GI50 and TGI values is PubChem BioAssay (NCI).

Each structure is given as a SMILES string. Values joined by “and” are separate entries in the source; they are usually repeats but may differ in a detail not shown here. Identical values can stand only once.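 Cells were grown in 96-well plates and exposed to each compound for 48 hours at five concentrations; endpoints were interpolated linearly between bracketing concentrations, or set to the highest concentration if not reached. GI50 = concentration required for 50% inhibition of growth. TGI: total growth inhibition.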

Test systems include A549 NSCLC; HL-60(TB) leukemia; HOP-92 NSCLC; HT29 colon; NCI-H226 lung; OVCAR-5 ovarian; RXF 393 renal; SF-268 CNS; SF-539 CNS; SW-620 colon.
What all share (experiment): NCI anticancer screen, dose series, 48 h

Turning to `CC12CCC(CC1)C(C)(C)O2`, the GI50 in the test with A549 NSCLC is 6.75 µM; with NCI-H226 lung, 6.25 µM; with SW-620 colon, 9.09 µM. Also, the TGI with A549 NSCLC was 79.7 µM; with HL-60(TB) leukemia, more than 93.9 µM; with HOP-92 NSCLC, 95.2 µM; in the test with HT29 colon, 128 µM; with NCI-H226 lung, 42.4 µM; in the test with OVCAR-5 ovarian, 116 µM. Besides, the TGI was found to be 56.9 µM with RXF 393 renal, 119 µM in the test with SF-268 CNS, 90.1 µM in the test with SF-539 CNS and 89.7 µM in the test on SW-620 colon.

Turning to `COc1ccc(-c2c(-c3ccccc3)c(C)nc3nc(SC)nc(SC)c23)cc1OC`, the TGI with A549 NSCLC was more than 100 µM; in the test with HL-60(TB) leukemia, 8.49 µM; with HOP-92 NSCLC, 48.2 µM; with HT29 colon it was more than 100 µM; with NCI-H226 lung it was 82.9 µM; in the test on OVCAR-5 ovarian, more than 100 µM. The TGI is more than 100 µM in the test on RXF 393 renal, more than 100 µM with SF-268 CNS, 23 µM in the test with SF-539 CNS and more than 100 µM with SW-620 colon.

As for `O=C(O)/C=C/c1c[nH]c(=O)[nH]c1=O`, the TGI in the test with A549 NSCLC, in the test with HL-60(TB) leukemia, with HOP-92 NSCLC, with HT29 colon, in the test on NCI-H226 lung and with OVCAR-5 ovarian was more than 500 µM in each case. For the same compound, the TGI in the test with RXF 393 renal, with SF-268 CNS, in the test with SF-539 CNS and in the test with SW-620 colon was more than 500 µM each time. Also, the GI50 with HOP-92 NSCLC is > 500 µM and 76.3 µM; in the test with HT29 colon, more than 500 µM; in the test with OVCAR-5 ovarian, more than 500 µM; with RXF 393 renal it was more than 500 µM.

`C=C1C(=O)OC2CC(C)C3C4OC4C(O)C3(C)C(O)C12` (stereo not given): the TGI was 121 µM in the test with A549 NSCLC; more than 51.6 µM with HL-60(TB) leukemia; 61.9 µM in the test with HOP-92 NSCLC; 83.8 µM in the test with HT29 colon; more than 68 µM with NCI-H226 lung; 108 µM in the test on OVCAR-5 ovarian. The TGI in the test on RXF 393 renal amounted to 53.7 µM; with SF-268 CNS, 71.7 µM; in the test with SF-539 CNS, 45.6 µM; in the test on SW-620 colon, 54.6 µM.

For `C=C=CC(NC(=O)c1ccccc1)(C(=O)O)C(F)(F)F` (stereo not given), the TGI in the test on A549 NSCLC, with HL-60(TB) leukemia, in the test with HOP-92 NSCLC, in the test with HT29 colon, with NCI-H226 lung and in the test with OVCAR-5 ovarian was more than 100 µM each time. For the same compound, the TGI with RXF 393 renal, in the test with SF-268 CNS, in the test on SF-539 CNS and with SW-620 colon was more than 100 µM in each case.

Consider `O=C1/C(=C/c2ccc(O)cc2)COc2ccc(O)c(O)c21`, for which the GI50 with A549 NSCLC is 3.6 µM; in the test with HL-60(TB) leukemia, 1.93 µM; in the test on HOP-92 NSCLC, 2.33 µM; in the test on HT29 colon it was 3.52 µM; in the test with NCI-H226 lung, 8.37 µM; with OVCAR-5 ovarian, 2.64 µM. In addition, the GI50 was 1.55 µM in the test with RXF 393 renal, 2.72 µM with SF-268 CNS, 1.82 µM in the test on SF-539 CNS and 2.11 µM in the test on SW-620 colon. For the same compound, the TGI in the test on A549 NSCLC was more than 100 µM; in the test with HL-60(TB) leukemia, 7.41 µM; in the test with HOP-92 NSCLC, 7.25 µM; with HT29 colon it was 16.9 µM; with NCI-H226 lung, 34.8 µM; in the test on OVCAR-5 ovarian, 7.26 µM. Besides, the TGI was 3.82 µM in the test on RXF 393 renal, more than 100 µM in the test with SF-268 CNS, 4.97 µM with SF-539 CNS and 5.36 µM with SW-620 colon.

`CCCCOP(C)(=O)C(NC(=O)OCC)(C(F)(F)F)C(F)(F)F` (stereo not given): the TGI in the test with A549 NSCLC, in the test on HL-60(TB) leukemia, in the test with HOP-92 NSCLC, in the test with HT29 colon, with NCI-H226 lung and in the test on OVCAR-5 ovarian was more than 100 µM in each case. The TGI in the test on RXF 393 renal, in the test on SF-268 CNS, in the test with SF-539 CNS and in the test with SW-620 colon was more than 100 µM in each case.

For the compound `Cc1cccc(N2C(=O)C3c4[nH]c5ccc(C)cc5c4C4CCC(C(C)(C)C)CC4C3C2=O)c1` (stereo not given), the TGI was 60.7 µM in the test with A549 NSCLC; 40.3 µM with HL-60(TB) leukemia; 57.6 µM with HOP-92 NSCLC; more than 100 µM in the test on HT29 colon; 36.5 µM in the test on NCI-H226 lung; more than 100 µM in the test on OVCAR-5 ovarian. The TGI with SF-268 CNS turned out to be 34.9 µM; with SW-620 colon, 59.6 µM.

Turning to `CCCCCCCCCCCCCC[n+]1ccc(C)cc1`, the GI50 with A549 NSCLC is 1.53 µM; in the test with HL-60(TB) leukemia it was 0.338 µM; in the test on HOP-92 NSCLC, 0.577 µM; in the test on HT29 colon it was 0.356 µM; with NCI-H226 lung, 0.915 µM; in the test with OVCAR-5 ovarian, 1.14 µM. Also, the GI50 in the test on RXF 393 renal was 1.05 µM; in the test with SF-268 CNS it was 0.447 µM; in the test on SF-539 CNS, 1.77 µM; in the test on SW-620 colon it was 0.945 µM. For the same compound, the TGI was determined as 2.94 µM with A549 NSCLC; 1.19 µM in the test with HL-60(TB) leukemia; 3.3 µM with HOP-92 NSCLC; 1.82 µM in the test with HT29 colon; 5.59 µM with NCI-H226 lung; 5.18 µM in the test on OVCAR-5 ovarian. Moreover, the TGI with RXF 393 renal was 2.35 µM; in the test with SF-268 CNS, 1.7 µM; with SF-539 CNS, 4.72 µM; in the test on SW-620 colon, 3.88 µM.
